The results in this text go back to patent US9353072B2, “Antimicrobial substituted thiazoles and methods of use” (Purdue Research Foundation, priority 2012, dated 2016).

Values after ≈ are worked out from the molar mass of the structure shown. Read-outs that look alike come from different tables or passages of the source.

Experiment [1] deals with MRSA ATCC 43300. In words: MIC/MBC broth microdilution, MRSA ATCC 43300. In kind it is cell-based, Staphylococcus aureus. On the procedure: (§1) Determination of minimum inhibitory concentration (MIC). The MICs of the lead thiazole compound (compound 1a) and nine derivatives tested against all 18 MRSA strains were determined, in triplicate samples, using the broth microdilution method in accordance with the recommendations contained in the CLSI guidelines.

Experiment [2] relates to VISA LIM 3 (NRS37). In words: MIC/MBC broth microdilution, NRS37 (VISA LIM 3). Conditions: Staphylococcus aureus, Table 8, NRS37 (VISA); for MIC: read-out: MIC. It counts as cell-based. On the procedure: as §1
For orientation: Dilution methods test growth across graded concentrations, often in twofold steps.

The subject of experiment [3] is MRSA USA400 (NRS123). The experiment is described as follows: MIC/MBC broth microdilution, NRS123 (USA400). In kind it is cell-based. Conditions: Staphylococcus aureus. On the procedure: as §1
Experiment [4] deals with VISA HIP07256 (NRS19). In words: MIC/MBC broth microdilution, NRS19 (VISA HIP07256). In kind it is cell-based. As to conditions: Staphylococcus aureus. On the procedure: as §1
Experiment [5] relates to NRS194. The experiment is described as follows: MIC/MBC broth microdilution, NRS194. In kind it is cell-based. As to conditions: Staphylococcus aureus; for MIC: Table 8, read-out: MIC. On the procedure:
as §1

Experiment [6] has as its system NRS119. The experiment is described as follows: MIC/MBC broth microdilution, NRS119. Conditions: Staphylococcus aureus, Table 8, NRS119; for MIC: read-out: MIC. It counts as cell-based. On the procedure:
as §1

Experiment [7] deals with NRS107. In words: MIC/MBC broth microdilution, NRS107. In kind it is cell-based. As to conditions: Staphylococcus aureus; for MIC: Table 8, read-out: MIC. On the procedure:
as §1

In experiment [8] the test system is MRSA NRS384 (USA300). The experiment is described as follows: MIC/MBC broth microdilution, NRS384 (USA300). In kind it is cell-based. As to conditions: Staphylococcus aureus. On the procedure:
as §1

Experiment [9] deals with MRSA ATCC 700699 (NRS1, VISA). The experiment is described as follows: MIC/MBC broth microdilution, NRS1 (ATCC 700699). It counts as cell-based. As to conditions: Staphylococcus aureus. On the procedure: as §1
The subject of experiment [10] is MRSA USA500 (NRS385). The experiment is described as follows: MIC/MBC broth microdilution, NRS385 (USA500). Conditions: Staphylococcus aureus. It counts as cell-based. On the procedure:
as §1

Setting [11] is: Staphylococcus aureus, Table 6, MRSA ATCC 43300, 128 μM down to 1.0 μM, 20 hours, read-out: MIC.
Setting [12] is: Staphylococcus aureus, Table 4, MRSA ATCC 43300, 64 μM down to 0.5 μM, 37° C., 19 hours, read-out: Minimum Inhibitory Concentration.
The mark [13] stands for this setting: Table 8, NRS19 (VISA), read-out: MIC.
Where [14] appears, read: Table 8, NRS1 (VISA), triplicates, 20 hours, read-out: MIC.
The mark [15] stands for this setting: Staphylococcus aureus, Table 8, ATCC 43300, read-out: MIC.
[16] abbreviates: Table 5, MRSA NRS384 (USA300), 128 μM down to 1.0 μM, 37° C., 19 hours, read-out: Minimum Inhibitory Concentration.

`CC(=O)c1sc(-c2ccc(-c3cc(C)cc(C)c3)cc2)nc1C` [Compound M7, 1-(2-(3′,5′-dimethyl-[1,1′-biphenyl]-4-yl)-4-methylthiazol-5-yl)ethanone]: the MIC in experiment [1] (setting [11]) is greater than 128 µM.

`CCCCc1ccc(-c2nc(C)c(/C(C)=N/NC(=N)N/N=C(\C)c3sc(-c4ccc(CCCC)cc4)nc3C)s2)cc1` [Compound M1]: the MIC in experiment [1] (setting [11]) is greater than 128 µM.

For `C/C(=N/NC(=N)N)c1sc(-c2cc[nH]n2)nc1C` [Compound M24, (Z)-2-(1-(4-methyl-2-(1H-pyrazol-3-yl)thiazol-5-yl)ethylidene)hydrazinecarboximidamide], the MIC in experiment [1] (setting [11]) is greater than 128 µM.

Regarding `C/C(=N\NC(=N)N/N=C(\C)c1sc(-c2ccc(N)cc2)nc1C)c1sc(-c2ccc(N)cc2)nc1C` [Compound M3], the MIC in experiment [1] (setting [11]) was greater than 128 µM.

For `CCCCc1ccc(-c2nc(C)c(C(=O)NNC(=O)c3sc(-c4ccc(CCCC)cc4)nc3C)s2)cc1` [Compound R3, 2-(4-butylphenyl)-N′-(2-(4-butylphenyl)-4-methylthiazole-5-carbonyl)-4-methylthiazole-5-carbohydrazide], the MIC in [1] (setting [12]) is greater than 64 µM.

As for `CC(=O)c1sc(-c2ccc(-c3ccc(C(F)(F)F)cc3)cc2)nc1C` [Compound M10, 1-(4-methyl-2-(4′-(trifluoromethyl)-[1,1′-biphenyl]-4-yl)thiazol-5-yl)ethanone], the MIC in [2] is greater than 128 µM; in experiment [3] (Table 8, NRS123, read-out: MIC) it was greater than 128 µM; in experiment [4] (setting [13]), greater than 128 µM; in experiment [5] it was greater than 128 µM; in [6] it was greater than 128 µM; in experiment [7], greater than 128 µM. The MIC is greater than 128 µM in experiment [8] (Table 8, NRS384, read-out: MIC); greater than 128 µM in experiment [9] (setting [14]); greater than 128 µM in [10] (Table 8, NRS385, read-out: MIC); greater than 128 µM in experiment [1] (setting [11]); greater than 128 µM in [1] (setting [15]).

For `CCCCc1ccc(-c2nc(C)c(C(N)=O)s2)cc1` [Compound R6, 2-(4-butylphenyl)-4-methylthiazole-5-carboxamide], in experiment [1] (setting [12]), the MIC is greater than 64 µM.

Regarding `CC(=O)c1sc(-c2cc[nH]n2)nc1C` [Compound M22, 1-(4-Methyl-2-(1H-pyrazol-3-yl)thiazol-5-yl)ethanone], the MIC in experiment [1] (setting [11]) was greater than 128 µM.

For the compound `[H]/N=C(/N)NN=C(C)c1sc(-c2cc[nH]n2)nc1C` [Compound M20], the MIC in experiment [1] (Table 6, MRSA ATCC 43300, 128 μM down to 1.0 μM, 20 hours, read-out: MIC) is 8 µM (≈ 2.11 µg/mL).

As to `C/C(=N/NC(=N)N)c1sc(-c2ccc(-c3ccc(O)cc3)cc2)nc1C` [Compound M5, (Z)-2-(1-(2-(4′-hydroxy-[1,1′-biphenyl]-4-yl)-4-methylthiazol-5-yl)ethylidene)hydrazinecarboximidamide], the MIC in experiment [1] (setting [11]) was greater than 128 µM.

With `C/C(=N\NC(=N)N)c1sc(-c2ccc(N)cc2)nc1C` [Compound M2, (E)-2-(1-(2-(4-aminophenyl)-4-methylthiazol-5-yl)ethylidene)hydrazinecarboximidamide], the MBC in experiment [2] (read-out: MBC) was found to be 128 µM (≈ 36.9 µg/mL); in experiment [3] (Table 8, NRS123, read-out: MBC) it was 128 µM (≈ 36.9 µg/mL); in experiment [4] (Table 8, NRS19 (VISA), read-out: MBC), 128 µM (≈ 36.9 µg/mL); in [5] (Table 8, read-out: MBC) it was 128 µM (≈ 36.9 µg/mL); in experiment [6] (read-out: MBC) it was 64 µM (≈ 18.5 µg/mL); in experiment [7] (Table 8, read-out: MBC), 64 µM (≈ 18.5 µg/mL). For the same compound, the MBC was determined as 128 µM (≈ 36.9 µg/mL) in [8] (Table 8, NRS384, read-out: MBC); 128 µM (≈ 36.9 µg/mL) in experiment [9] (Table 8, NRS1 (VISA), read-out: MBC); 128 µM (≈ 36.9 µg/mL) in experiment [10] (Table 8, NRS385, read-out: MBC); 128 µM (≈ 36.9 µg/mL) in [1] (Staphylococcus aureus, Table 8, ATCC 43300, read-out: MBC). The MIC in experiment [2] was 64 µM (≈ 18.5 µg/mL); in [3] (Table 8, NRS123, read-out: MIC), 128 µM; in experiment [4] (setting [13]), 128 µM; in [5] it was 128 µM (≈ 36.9 µg/mL); in experiment [6], 64 µM (≈ 18.5 µg/mL); in experiment [7], 64 µM (≈ 18.5 µg/mL). The MIC in experiment [8] (Table 8, NRS384, read-out: MIC) is 128 µM; in experiment [9] (setting [14]) it was 64 µM; in experiment [10] (Table 8, NRS385, read-out: MIC), 128 µM; in experiment [1] (setting [11]), greater than 128 µM; in [1] (setting [15]), 128 µM (≈ 36.9 µg/mL).

In the case of `CC(=O)c1sc(-c2ccc(-c3ccc(-c4ccccc4)cc3)cc2)nc1C` [Compound M23, 1-(2-([1,1′:4′,1″-Terphenyl]-4-yl)-4-methylthiazol-5-yl)ethanone], the MIC in [1] (setting [11]) was greater than 128 µM.

In experiment [1] (Staphylococcus aureus, 20 h), `COc1cc(OC)cc(-c2ccc(-c3nc(C)c(C(C)=O)s3)cc2)c1` [Compound M19, 1-(2-(3′,5′-dimethoxy-[1,1′-biphenyl]-4-yl)-4-methylthiazol-5-yl)ethanone] gave an MIC greater than 128 µM.

On to `CCCCc1ccc(-c2nc(C)c(C(=O)NC[C@H](O)CO)s2)cc1` [Compound R9, (S)-2-(4-butylphenyl)-N-(2,3-dihydroxypropyl)-4-methylthiazole-5-carboxamide], for which, in experiment [8] (setting [16]), the MIC came to 128 µM.

For the compound `CC(=O)c1sc(-c2ccc(-c3cccc4ccccc34)cc2)nc1C` [Compound M6, 1-(4-methyl-2-(4-(naphthalen-1-yl)phenyl)thiazol-5-yl)ethanone], the MIC in [2] is greater than 128 µM; in experiment [3] (Table 8, NRS123, read-out: MIC), greater than 128 µM; in [4] (setting [13]), greater than 128 µM; in experiment [5], greater than 128 µM; in experiment [6] it was greater than 128 µM; in [7], greater than 128 µM. The MIC in experiment [8] (Table 8, NRS384, read-out: MIC) was greater than 128 µM; in experiment [9] (setting [14]), greater than 128 µM; in experiment [10] (Table 8, NRS385, read-out: MIC) it was greater than 128 µM; in [1] (setting [11]), greater than 128 µM; in experiment [1] (setting [15]), greater than 128 µM.

In experiment [1] (Staphylococcus aureus, 20 h), `CCCCCCCC#Cc1ccc(-c2nc(C)c(/C(C)=N\NC(=N)N/N=C(\C)c3sc(-c4ccc(C#CCCCCCCC)cc4)nc3C)s2)cc1` [Compound M18] returned an MIC greater than 128 µM.

As to `CCCCc1ccc(-c2nc(C)c(C(=O)NCCN(C)C)s2)cc1` [Compound R10, 2-(4-butylphenyl)-N-(2-(dimethylamino)ethyl)-4-methylthiazole-5-carboxamide], in [8] (setting [16]), the MIC amounted to 128 µM.

As to `CCCCc1ccc(-c2nc(C)c(C(=O)NC[C@@H](O)CO)s2)cc1` [Compound R8, (R)-2-(4-butylphenyl)-N-(2,3-dihydroxypropyl)-4-methylthiazole-5-carboxamide], the MIC in [8] (setting [16]) worked out at 128 µM.

With `CCCCc1ccc(-c2nc(C)c(C(=O)NNC(=N)N)s2)cc1` [Compound R5, 2-(2-(4-butylphenyl)-4-methylthiazole-5-carbonyl)hydrazinecarboximidamide], the MIC in [1] (setting [12]) was greater than 64 µM.

Turning to `CC(=O)c1sc(-c2cccc(F)c2)nc1C` [Compound M15, 1-(2-(3-fluorophenyl)-4-methylthiazol-5-yl)ethanone], the MIC in experiment [1] (Staphylococcus aureus, 20 h) was greater than 128 µM.

Consider `CC(=O)c1sc(-c2ccc(-c3ccc(O)cc3)cc2)nc1C` [Compound M4, 1-(2-(4′-hydroxy-[1,1′-biphenyl]-4-yl)-4-methylthiazol-5-yl)ethanone], for which the MIC in experiment [1] (setting [11]) is greater than 128 µM.

Consider `CCCCc1ccc(-c2nc(C)c(-c3nnn[nH]3)s2)cc1` [Compound R2, 2-(4-butylphenyl)-4-methyl-5-(1H-tetrazol-5-yl)thiazole], for which the MIC in [1] (setting [12]) is greater than 64 µM.

Turning to `CC(=O)c1sc(-c2ccc(-c3ccc(-c4nc(C)c(C(C)=O)s4)cc3)cc2)nc1C` [Compound M21, 1,1′-(2,2′-([1,1′-Biphenyl]-4,4′-diyl)bis(4-methylthiazole-5,2-diyl))diethanone], the MIC in experiment [1] (setting [11]) is greater than 128 µM.

As to `CCCCCCCCCc1ccc(-c2nc(C)c(/C(C)=N/NC(=N)N)s2)cc1` [Compound 1f], the MIC in experiment [3] (Table 2, MRSA USA400, read-out: Minimum Inhibitory Concentration) was 4.4 µg/mL; in experiment [4] (Table 2, VISA HIP07256, read-out: Minimum Inhibitory Concentration) it was 2.2 µg/mL; in [8] (Table 2, MRSA USA300, read-out: Minimum Inhibitory Concentration) it was 2.2 µg/mL; in [9] (Table 2, MRSA ATCC 700699, read-out: Minimum Inhibitory Concentration), 1.1 µg/mL; in experiment [10] (Table 2, MRSA USA500, read-out: Minimum Inhibitory Concentration) it was 4.4 µg/mL.

In general, MBC refers to the lowest tested concentration that kills the bacteria rather than only halting them.
